{
  "source": "paper PMC7369637",
  "about": "“Inhibition of Resistance-Refractory P. falciparum Kinase PKG Delivers Prophylactic, Blood Stage, and Transmission-Blocking Antiplasmodial Activity” (Cell Chemical Biology, 2020)",
  "system": "ed. Dd2-B2 TKL3KO",
  "experiment": "72-h ABS assay, TKL3 knockout line",
  "assay_type": "cell-based",
  "conditions": "Plasmodium falciparum, parent Dd2-B2 wild-type",
  "description": "Synchronicity was achieved using three rounds of sorbitol treatment on early rings, spaced 48 h apart, followed by magnetic purification of segmented schizonts following the final sorbitol treatment. Parasites were highly synchronous to within a 3 h window of development. Assays were repeated on at least three independent occasions (each with technical duplicates) and statistical significance was assessed using Mann Whitney U tests.\nThe resulting MMV030084-resistant parasites were cloned by limiting dilution ([Baker et al., 2017]) to obtain genetically homogenous cultures for further phenotyping and whole-genome sequencing. A second round of […]. […] Drug susceptibility of resistant lines was assessed using a 72 h ABS assay as described above, and a Mann Whitney U test was applied to assess statistically significant differences.\nA CRISPR/Cas9 targeted gene editing strategy using an all-in-one plasmid approach was applied to introduce T1268R, I1250M and T1268R+I1250M in wild-type Dd2-B2 parasites or to produce a TKL3 KO line by inserting a stop codon and frameshift at amino acid position 1268. […] WR99210 (2.5 nM) was added to the culture medium 24 h after electroporation to select for successfully transfected parasites and was maintained in the medium until edited parasites were detected. […]",
  "data": [
    {"compound": "CC(C)(CN)c1nc(-c2ccc(Cl)c(O)c2)c(-c2ccncc2)[nH]1", "note": "[MMV030084]", "values": [
      {"measurement": "IC50", "value": 376, "unit": "nM"}
    ]}
  ]
}
